From publication PMC5892457, “Characterisation of novel biomass degradation enzymes from the genome of Cellulomonas fimi” (Enzyme and Microbial Technology, 2018)

Target: T1, AfsA (Cellulomonas fimi, UniProt F4H166)
T1 construct: gene Celf_3321; full ORF as BioBrick, E. coli JM109 crude lysate, untagged
T1 sequence (F4H166 1-506): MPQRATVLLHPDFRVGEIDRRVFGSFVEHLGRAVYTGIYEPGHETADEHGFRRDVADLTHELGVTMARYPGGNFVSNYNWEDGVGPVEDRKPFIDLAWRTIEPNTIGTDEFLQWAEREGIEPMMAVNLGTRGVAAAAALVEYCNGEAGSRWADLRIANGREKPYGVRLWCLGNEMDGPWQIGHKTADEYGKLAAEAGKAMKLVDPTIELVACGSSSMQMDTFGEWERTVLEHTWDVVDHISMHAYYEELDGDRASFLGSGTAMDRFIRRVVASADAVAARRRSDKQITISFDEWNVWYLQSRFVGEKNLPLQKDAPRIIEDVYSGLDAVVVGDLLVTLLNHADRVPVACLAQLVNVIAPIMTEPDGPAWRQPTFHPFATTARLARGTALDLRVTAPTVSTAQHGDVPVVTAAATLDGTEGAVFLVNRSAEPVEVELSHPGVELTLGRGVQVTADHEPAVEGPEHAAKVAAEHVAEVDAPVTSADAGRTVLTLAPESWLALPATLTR
Test: nitrophenol release at […] nm
Assay type: biochemical
Conditions: pH 5.0, 37 °C, E. coli lysate

Compound: O=[N+]([O-])c1ccccc1O[C@@H]1OC[C@@H](O)[C@H](O)[C@H]1O [ONPX, 2-nitrophenyl β-D-xylopyranoside]
- nitrophenol release at 405 nm: AfsA at this temperature and pH being more active with ONPX than PNPA

Compound: O=[N+]([O-])c1ccc(O[C@@H]2O[C@@H](CO)[C@H](O)[C@H]2O)cc1 [PNPA, 4-nitrophenyl α-L-arabinofuranoside]
- nitrophenol release at 405 nm: AfsA and AfsB have both arabinofuranoisdase and xylosidase activities
